# According to patent US8658668B2, “PI3 kinase/mTOR dual inhibitor” (Eli Lilly and Company, priority 2011, dated 2014):
# Tests used:
# [1] = test system: OVXF 550 human tumor xenograft cells; assay: Oncotest tumor clonogenic assay, OVXF 550; type: cell-based; details: colony formation, Ovary OVXF 550, carcinoma, read-out: Absolute IC50
# pT389 p70S6K = assay: In vivo target inhibition in U87MG tumors, pT389 p70S6K; details: Mus musculus, U-87 MG; for inhibition at 0.5 mg/kg: 0.5 mg/kg oral; for inhibition at 1.5 mg/kg: 1.5 mg/kg oral; for inhibition at 3 mg/kg: 3 mg/kg oral; for inhibition at 6 mg/kg: 6 mg/kg oral; for inhibition at 10 mg/kg: 10 mg/kg oral; for inhibition at 12 mg/kg: 12 mg/kg oral
# Protocol: (§1) Implant U87MG human glioblastoma cells (5×10^6) subcutaneously into the flank of athymic nude mice in 0.2 mL of matrigel. Ten days post-implantation, dose mice orally according to a time course, single dose/single time point, or dose response protocol for the determination of TMED50 (threshold minimum effective dose). Flash freeze tumors at harvest and collect blood for the determination of parent compound plasma exposure and the calculation of TMEC50 (threshold minimum effective concentration) in the case of dose response studies. Homogenize tumors in 500 μL of XY Lysis Buffer (10 μg/mL Leupeptin, 10 μg/mL Trypsin-Chymotrypsin Inhibitor, 10 μg/mL Tosyl phenyl-alanyl chloromethyl ketone, 10 μg/mL Aprotinin, 60 mM Beta-Glycerol Phosphate, 1% Triton X100, 25 mM Tris pH 7.5, 2.5 mM Pyrophosphate, 150 mM NaCl, 2 mM p-tosyl-L-arginine methyl ester, 15 mM para-nitrophenyl phosphate, 5 mM benzamidine, 1 mM sodium vanadate, 10 mM sodium fluoride, 50 μg/mL phenyl-methane sulfonyl fluoride, 1 mM 1,4-dithiothreitol (DTT), 15 mM EDTA pH 8.0, 5 mM EGTA pH 8.0, 1 μM Microcystin, 1 μM Okadaic Acid, and 1 Roche Complete protease inhibitor mini-tablet per 10 mL) using RNase Free Pellet Pestle (Kimble-Kontes). Aliquot lysates and either assay immediately or store at −80° C. for later testing. Use the multiplex format of Meso Scale Discovery (Gaithersburg, Md.) ELISA technology and measure in vivo target inhibition of PI3K and mTOR to assess effects on phosphorylation of the threonine 308 site of AKT, a downstream effector of PI3K; phosphorylation on the threonine 389 site of p70 S6K and on the serine 240/244 site of S6RP, downstream effectors of mTORC1; phosphorylation of the serine 473 site of AKT, a downstream effector of mTORC2. Add 20 μg of lysate to carbon electrode containing 96-well plates pre-spotted with the appropriate capture antibodies. Probe the protein of interest using a ruthenium labeled detection antibody. Pass current over the electrode in the presence of read buffer containing the co-reactant TPA, and quantitate and record the light generated by electro-chemiluminescence with the MSD Sector 6000 instrument. Calculate percent inhibitions relative to the vehicle control group and perform ANOVA analysis using the JMP software package for the determination of statistical significance.
# [2] = test system: PXF 541 human tumor xenograft cells; assay: Oncotest tumor clonogenic assay, PXF 541; type: cell-based; details: colony formation, Pleuramesothelioma PXF 541, invasive pleuramesothelioma, read-out: Absolute IC50
# pS473 AKT = assay: In vivo target inhibition in U87MG tumors, pS473 AKT; details: Mus musculus, U-87 MG; for inhibition at 0.5 mg/kg: 0.5 mg/kg oral; for inhibition at 1.5 mg/kg: 1.5 mg/kg oral; for inhibition at 3 mg/kg: 3 mg/kg oral; for inhibition at 6 mg/kg: 6 mg/kg oral; for inhibition at 10 mg/kg: 10 mg/kg oral; for inhibition at 12 mg/kg: 12 mg/kg oral
# Protocol: as §1
# [3] = test system: MAXF 1384 human tumor xenograft cells; assay: Oncotest tumor clonogenic assay, MAXF 1384; type: cell-based; details: colony formation, Mammary MAXF 1384, adeno carcinoma, pd, read-out: Absolute IC50
# PI3Ka = PI3Ka (Homo sapiens, UniProt P42336); assay: PI3Ka Scintillation Proximity Assay; type: biochemical; details: 10 μM ATP; n=2; read-out: absolute IC50
# Protocol: Use the PI3Ka Scintillation Proximity Assay (PI3Ka SPA) to determine compound IC50 values against PI3Ka kinase. This assay assesses the activity PI3Ka in the presence of compound inhibitors by measuring incorporation of γ-P^33-ATP into phosphatidylinositol (4,5)bisphosphate (PIP2). Perform the kinase reactions in 40 μL reaction volumes in 96-well half-area flat bottom white with clear bottom polystyrene plates. Add PI3Ka to start the reaction. Final reaction conditions are 43.75 mM 2,2-bis(hydroxymethyl)-2,2′,2″-nitrilotriethanol (Bis-Tris) pH 7.0, 306 mM sodium chloride (NaCl), 1.76 mM polyethylene glycol octylphenyl ether (Triton® X-100), 10 μM adenosine triphosphate (ATP), 2.9 mM magnesium chloride (MgCl2) and 1 μCi per well γ-P^33-adenosine triphosphate (γ-P^33-ATP), 5.0 nM PI3Ka human recombinant enzyme, 0.2 mM palmitoyl-oleoyl phosphatidylserine (POPS), 0.04 mM phosphatidylinositol (4,5)bisphosphate (PIP2), 4% DMSO and serial dilutions of compound (diluted 1:3 from 20,000 to 1 nM). Incubate at RT for 90 min after adding PI3Ka. Stop the reaction with the addition of 40 μL of a stopping buffer containing 2.5 mg/mL neomycin linked beads (Amersham, Cat# RPNQ0506) and 21 mM ethylenediaminetetraacetic acid (EDTA). Centrifuge plates for 30 min at 1000 revolutions per minute (RPM) and count radioactivity with a Wallac Microbeta Trilux normalized for P^33. […]
# PI3Ka, sequence (P42336 whole entry): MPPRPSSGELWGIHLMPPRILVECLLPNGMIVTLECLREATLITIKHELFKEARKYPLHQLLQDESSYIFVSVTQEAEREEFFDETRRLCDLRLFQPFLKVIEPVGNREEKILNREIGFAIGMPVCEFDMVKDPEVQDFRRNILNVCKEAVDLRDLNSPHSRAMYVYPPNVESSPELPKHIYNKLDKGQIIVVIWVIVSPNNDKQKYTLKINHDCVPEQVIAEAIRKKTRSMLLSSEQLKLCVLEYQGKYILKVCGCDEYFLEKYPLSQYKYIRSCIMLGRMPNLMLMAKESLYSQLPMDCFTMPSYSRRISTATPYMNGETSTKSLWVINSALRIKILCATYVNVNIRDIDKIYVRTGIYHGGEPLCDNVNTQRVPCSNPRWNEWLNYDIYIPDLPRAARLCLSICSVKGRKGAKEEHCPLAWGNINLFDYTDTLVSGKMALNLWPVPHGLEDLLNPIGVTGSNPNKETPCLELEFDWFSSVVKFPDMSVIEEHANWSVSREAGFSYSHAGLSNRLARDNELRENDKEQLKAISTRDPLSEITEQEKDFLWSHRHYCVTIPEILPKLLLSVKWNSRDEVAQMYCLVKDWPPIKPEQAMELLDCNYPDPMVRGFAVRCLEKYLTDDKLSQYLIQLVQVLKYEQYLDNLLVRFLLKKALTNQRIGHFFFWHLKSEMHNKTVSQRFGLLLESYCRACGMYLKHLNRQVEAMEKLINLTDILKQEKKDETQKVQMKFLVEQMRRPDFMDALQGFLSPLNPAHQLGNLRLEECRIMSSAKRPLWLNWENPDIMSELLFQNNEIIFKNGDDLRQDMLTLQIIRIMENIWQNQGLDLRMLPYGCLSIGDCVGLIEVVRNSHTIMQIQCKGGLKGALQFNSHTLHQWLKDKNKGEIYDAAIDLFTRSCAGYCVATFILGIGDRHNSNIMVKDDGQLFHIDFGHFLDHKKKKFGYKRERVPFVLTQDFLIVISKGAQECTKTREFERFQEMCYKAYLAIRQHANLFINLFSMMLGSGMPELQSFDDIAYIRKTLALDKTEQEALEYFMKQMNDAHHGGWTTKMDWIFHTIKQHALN
# PI3Ka, sequence (P27986 whole entry partner): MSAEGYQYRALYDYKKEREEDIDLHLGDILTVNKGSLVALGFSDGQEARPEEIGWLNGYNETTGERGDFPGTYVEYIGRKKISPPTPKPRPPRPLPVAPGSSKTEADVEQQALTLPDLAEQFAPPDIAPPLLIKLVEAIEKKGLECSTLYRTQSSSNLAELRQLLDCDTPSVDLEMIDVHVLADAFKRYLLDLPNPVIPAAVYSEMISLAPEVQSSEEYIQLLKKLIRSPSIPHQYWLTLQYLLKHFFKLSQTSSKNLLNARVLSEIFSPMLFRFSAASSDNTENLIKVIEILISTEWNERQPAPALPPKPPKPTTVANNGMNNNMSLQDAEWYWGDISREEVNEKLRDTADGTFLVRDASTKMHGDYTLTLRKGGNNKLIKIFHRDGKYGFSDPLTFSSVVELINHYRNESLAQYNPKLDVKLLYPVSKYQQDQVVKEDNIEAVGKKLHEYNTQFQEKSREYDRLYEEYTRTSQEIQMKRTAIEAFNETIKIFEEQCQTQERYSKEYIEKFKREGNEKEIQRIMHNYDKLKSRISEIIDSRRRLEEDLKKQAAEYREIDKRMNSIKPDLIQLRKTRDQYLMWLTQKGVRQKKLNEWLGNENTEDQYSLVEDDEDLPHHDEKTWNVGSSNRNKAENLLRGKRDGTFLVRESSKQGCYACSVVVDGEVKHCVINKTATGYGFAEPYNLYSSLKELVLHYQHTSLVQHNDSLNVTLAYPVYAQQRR
smiles,measurement,setting,value
"CO[C@@H](C)Cn1c(=O)n(C)c2cnc3ccc(-c4cncc(C(C)(C)O)c4)cc3c21 [Example 1, 8-[5-(1-Hydroxy-1-methylethyl)pyridin-3-yl]-1-[(2S)-2-methoxypropyl]-3-methyl-1,3-dihydro-2H-imidazo[4,5-c]quinolin-2-one]",IC50,[1],28 nM
same,inhibition at 0.5 mg/kg,pT389 p70S6K; 0.5 hr post dose,62%
same,inhibition at 0.5 mg/kg,pT389 p70S6K; 4 hr post dose,7%
same,inhibition at 1.5 mg/kg,pT389 p70S6K; 0.5 hr post dose,84%
same,inhibition at 1.5 mg/kg,pT389 p70S6K; 4 hr post dose,38%
same,inhibition at 3 mg/kg,pT389 p70S6K; 0.25 hr post dose,77%
same,inhibition at 3 mg/kg,pT389 p70S6K; 0.5 hr post dose,89%
same,inhibition at 3 mg/kg,pT389 p70S6K; 1 hr post dose,89%
same,inhibition at 3 mg/kg,pT389 p70S6K; 3 hr post dose,77%
same,inhibition at 3 mg/kg,pT389 p70S6K; 4 hr post dose,64%
same,inhibition at 6 mg/kg,pT389 p70S6K; 0.25 hr post dose,88%
same,inhibition at 6 mg/kg,pT389 p70S6K; 0.5 hr post dose,91%
same,inhibition at 6 mg/kg,pT389 p70S6K; 1 hr post dose,90%
same,inhibition at 6 mg/kg,pT389 p70S6K; 2 hr post dose,87%
same,inhibition at 6 mg/kg,pT389 p70S6K; 4 hr post dose,68%
same,inhibition at 6 mg/kg,pT389 p70S6K; 6 hr post dose,61%
same,inhibition at 6 mg/kg,pT389 p70S6K; 12 hr post dose,14%
same,inhibition at 10 mg/kg,pT389 p70S6K; 0.5 hr post dose,93%
same,inhibition at 10 mg/kg,pT389 p70S6K; 1 hr post dose,92%
same,inhibition at 10 mg/kg,pT389 p70S6K; 2 hr post dose,92%
same,inhibition at 10 mg/kg,pT389 p70S6K; 4 hr post dose,91%
same,inhibition at 10 mg/kg,pT389 p70S6K; 8 hr post dose,55%
same,inhibition at 12 mg/kg,pT389 p70S6K; 0.5 hr post dose,92%
same,inhibition at 12 mg/kg,pT389 p70S6K; 4 hr post dose,90%
same,IC50,[2],56 nM
same,inhibition at 0.5 mg/kg,pS473 AKT; 0.5 hr post dose,-9%
same,inhibition at 0.5 mg/kg,pS473 AKT; 4 hr post dose,-28%
same,inhibition at 1.5 mg/kg,pS473 AKT; 0.5 hr post dose,34%
same,inhibition at 1.5 mg/kg,pS473 AKT; 4 hr post dose,-12%
same,inhibition at 3 mg/kg,pS473 AKT; 0.25 hr post dose,23%
same,inhibition at 3 mg/kg,pS473 AKT; 0.5 hr post dose,63%
same,inhibition at 3 mg/kg,pS473 AKT; 1 hr post dose,12%
same,inhibition at 3 mg/kg,pS473 AKT; 3 hr post dose,-7%
same,inhibition at 3 mg/kg,pS473 AKT; 4 hr post dose,-3%
same,inhibition at 6 mg/kg,pS473 AKT; 0.25 hr post dose,63%
same,inhibition at 6 mg/kg,pS473 AKT; 0.5 hr post dose,77%
same,inhibition at 6 mg/kg,pS473 AKT; 1 hr post dose,67%
same,inhibition at 6 mg/kg,pS473 AKT; 2 hr post dose,51%
same,inhibition at 6 mg/kg,pS473 AKT; 4 hr post dose,-5%
same,inhibition at 6 mg/kg,pS473 AKT; 6 hr post dose,-8%
same,inhibition at 6 mg/kg,pS473 AKT; 12 hr post dose,-6%
same,inhibition at 10 mg/kg,pS473 AKT; 0.5 hr post dose,90%
same,inhibition at 10 mg/kg,pS473 AKT; 1 hr post dose,73%
same,inhibition at 10 mg/kg,pS473 AKT; 2 hr post dose,66%
same,inhibition at 10 mg/kg,pS473 AKT; 4 hr post dose,56%
same,inhibition at 10 mg/kg,pS473 AKT; 8 hr post dose,13%
same,inhibition at 12 mg/kg,pS473 AKT; 0.5 hr post dose,91%
same,inhibition at 12 mg/kg,pS473 AKT; 4 hr post dose,44%
same,IC50,[3],243 nM
same,IC50,PI3Ka,6.07 nM
